Key:
[1] = target: T1, human S1P1 (EDG1) receptor (Homo sapiens, UniProt P21453); test: S1P1 β-arrestin recruitment (Tango) assay to determine EC50 values; assay type: cell-based; conditions: Tango-EDG1 bla U2OS cells, 16 h incubation
T1 construct: host or cells: U2OS (Tango EDG1-bla U2OS)

[2] = tested on: circulating lymphocytes; test: Assessment of in vivo efficacy: circulating lymphocytes after oral administration to Wistar rats; parameters: species or system rat; conditions: 6 h after oral administration of 10 mg/kg, normotensive male Wistar rats, compared to vehicle group; for change in vivo at 10 mg/kg: Rattus norvegicus, Lymphocyte, read-out: Lymphocyte counts
[3] = tested on: rat trachea rings
Experimental: (§1) Measurement of Isometric Force Development
(§2) Female Wistar rats are euthanized by exposure to CO2. The tracheae are excised and rings from the lower segments are prepared. […] A resting force of 2 g (20 mN) is applied to the ring preparation, and changes in force generation are measured using an isometric force recorder (EMKA Technologies Inc., Paris, France). Viability of rings is assessed by exposure to a depolarizing concentration of KCl (50 mM). Contraction of trachea is expressed as a percentage of the response to KCl.
(§3) The compounds are prepared as stock solutions of 0.3 mM in pure DMSO.

[4] = tested on: rat trachea rings; test: Measurement of isometric force development: constriction of rat trachea rings; conditions: for activation at 1 µM / activation at 0.1 µM: Rattus norvegicus; for activation at 1 µM: read-out: % trachea constriction at 1 μM; for activation at 0.1 µM: read-out: % trachea constriction at 0.1 μM
Experimental: as §1, §2, §3

[5] = in % of the constriction induced by 50 mM KCl

T1 sequence (P21453 whole entry): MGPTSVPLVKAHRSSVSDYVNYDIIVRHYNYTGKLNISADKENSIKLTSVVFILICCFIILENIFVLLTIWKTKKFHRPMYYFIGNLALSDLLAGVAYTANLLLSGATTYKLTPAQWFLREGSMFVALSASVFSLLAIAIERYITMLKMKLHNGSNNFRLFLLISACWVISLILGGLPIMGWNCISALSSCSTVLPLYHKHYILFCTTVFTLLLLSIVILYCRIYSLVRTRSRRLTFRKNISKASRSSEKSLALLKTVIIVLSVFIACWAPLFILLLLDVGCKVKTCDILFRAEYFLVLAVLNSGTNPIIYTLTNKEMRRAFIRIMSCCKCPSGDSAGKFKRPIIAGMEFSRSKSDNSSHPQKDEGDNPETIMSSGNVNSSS

Row | Compound | EC50 [1] [nM] | concentration at which significant (or KCl-comparable) rat trachea constriction is shown [3] [µM] | concentration at which significant (or full) rat trachea constriction is shown ([4]; rat trachea rings) [µM] | Lymphocyte counts [2] [%] | % trachea constriction at 10 nM [4, 5] [%] | % trachea constriction at 30 nM [4, 5] [%] | % trachea constriction at 0.1 μM ([4]; 0.1 μM, in % of the constriction induced by 50 mM KCl) [%] | change in vivo at 10 mg/kg [2] [%] | % trachea constriction at 3 μM [4, 5] [%] | % trachea constriction at 10 μM [4, 5] [%] | % trachea constriction at 30 μM ([4]; 30 μM, in % of the constriction induced by 50 mM KCl) [%] | activation at 1 µM [4] [%] | % trachea constriction at 0.3 μM [4, 5] [%] | activation at 0.1 µM [4] [%]
1 | CCc1cc(-c2noc(-c3cc(OC)nc(C4CCCC4)c3)n2)cc(C)c1OC[C@@H](O)CNCCO [Example 3] | 8.3 | – | – | – | – | – | – | -25 | <5 | <5 | <5 | < 5 | – | –
2 | CCc1cc(-c2nc(-c3cc(OC)nc(C4CCCC4)c3)no2)cc(C)c1OCCCC(=O)O [Example 54, 4-(4-(3-(2-Cyclopentyl-6-methoxypyridin-4-yl)-1,2,4-oxadiazol-5-yl)-2-ethyl-6-methylphenoxy)butanoic acid] | 0.1 | – | – | – | – | <5 | – | -72 | – | – | – | 76 | 55 | 5.6
3 | CCc1cc(-c2noc(-c3cc(OC)nc(C4CCCC4)c3)n2)cc(C)c1OCC(=O)NCCO [Example 13, 2-(4-(5-(2-Cyclopentyl-6-methoxypyridin-4-yl)-1,2,4-oxadiazol-3-yl)-2-ethyl-6-methylphenoxy)-N-(2-hydroxyethyl)acetamide] | 2.4 | – | – | – | – | – | – | -77 | – | <5 | – | < 5 | – | –
4 | COc1cc(-c2nc(-c3cc(C)c(OCCNCCO)c(Cl)c3)no2)cc(C2CCCC2)n1 [Example 45, 2-((2-(2-Chloro-4-(5-(2-cyclopentyl-6-methoxypyridin-4-yl)-1,2,4-oxadiazol-3-yl)-6-methylphenoxy)ethyl)amino)ethanol] | 1.7 | – | 10 | – | – | – | – | -72 | <5 | 52 | – | < 5 | – | –
5 | COc1cc(-c2nc(-c3cc(C)c(OCC(=O)O)c(Cl)c3)no2)cc(C2CCCC2)n1 [Example 41, 2-(2-Chloro-4-(5-(2-cyclopentyl-6-methoxypyridin-4-yl)-1,2,4-oxadiazol-3-yl)-6-methylphenoxy)acetic acid] | 1.1 | – | – | – | <5 | 10 | – | -49 | – | – | – | 120 | – | 56

Further compounds by falling EC50 [1], results first:

Row | EC50 [1] [nM] | concentration at which significant (or KCl-comparable) rat trachea constriction is shown [3] [µM] | concentration at which significant (or full) rat trachea constriction is shown ([4]; rat trachea rings) [µM] | Compound | Lymphocyte counts [2] [%] | % trachea constriction at 10 nM [4, 5] [%] | % trachea constriction at 30 nM [4, 5] [%] | % trachea constriction at 0.1 μM ([4]; 0.1 μM, in % of the constriction induced by 50 mM KCl) [%] | change in vivo at 10 mg/kg [2] [%] | % trachea constriction at 3 μM [4, 5] [%] | % trachea constriction at 10 μM [4, 5] [%] | % trachea constriction at 30 μM ([4]; 30 μM, in % of the constriction induced by 50 mM KCl) [%] | activation at 1 µM [4] [%] | % trachea constriction at 0.3 μM [4, 5] [%] | activation at 0.1 µM [4] [%]
6 | 1.6 | – | – | CCc1cc(-c2noc(-c3cc(OC)nc(C4CCCC4)c3)n2)cc(C)c1OCC(=O)O [Example 5, 2-(4-(5-(2-Cyclopentyl-6-methoxypyridin-4-yl)-1,2,4-oxadiazol-3-yl)-2-ethyl-6-methylphenoxy)acetic acid] | – | <5 | <5 | – | -35 | – | – | – | 124 | 84 | 66
7 | 0.627 | – | – | COc1cc(-c2nc(-c3cc(Cl)c(OCCCC(=O)O)c(OC)c3)no2)cc(C2CCCC2)n1 [Example 35, 4-(2-Chloro-4-(5-(2-cyclopentyl-6-methoxypyridin-4-yl)-1,2,4-oxadiazol-3-yl)-6-methoxyphenoxy)butanoic acid] | – | <5 | <5 | – | -71 | – | – | – | 108 | – | 86
8 | 0.1 | 0.1 | – | 4-((2-(4-(5-(2-Cyclopentyl-6-methoxypyridin-4-yl)-1,2,4-oxadiazol-3-yl)-2-ethyl-6-methylphenoxy)ethyl)amino)-4-oxobutanoic acid [Example 50] | −57 | <5 | 55 | 103 | – | – | – | – | – | – | –
9 | 0.072 | – | – | CCc1cc(-c2noc(-c3cc(OC)nc(C4CCCC4)c3)n2)cc(C)c1OCCCNC(=O)CCC(=O)O [Example 32, 4-((3-(4-(5-(2-Cyclopentyl-6-methoxypyridin-4-yl)-1,2,4-oxadiazol-3-yl)-2-ethyl-6-methylphenoxy)propyl)amino)-4-oxobutanoic acid] | – | – | – | – | -65 | – | – | – | 105 | 50 | 27
10 | 0.04 | – | – | CCc1cc(-c2noc(-c3cc(OC)nc(C4CCCC4)c3)n2)cc(C)c1OCCNCCC(=O)O [Example 1, 3-((2-(4-(5-(2-Cyclopentyl-6-methoxypyridin-4-yl)-1,2,4-oxadiazol-3-yl)-2-ethyl-6-methylphenoxy)ethyl)amino)propanoic acid] | – | – | – | – | -69 | – | – | – | 96 | 53 | < 5

Source: patent US9133179B2, “2-methoxy-pyridin-4-yl-derivatives” (Actelion Pharmaceuticals Ltd., priority 2011, dated 2015)
